Measurements reported in patent US8361968B2 (Takeda Pharmaceutical Company Limited, priority 2002, dated 2013).
Numbered stars: 1 amine (or outer) side, 2 acyl side, 3 side chain; on linkers, the order of the positions; unused ones are H or OH. Square brackets hold non-standard residues; d marks the D form. Peptide text beside a SMILES is read from it. * marks the point of attachment. Propanoyl(3-indol-3-yl) = O=C(CCc1c[nH]c2ccccc12)*; Diphenylacetyl = O=C(C(c1ccccc1)c1ccccc1)*; X8 = CNC(=N)NCC[C@H](N[*:1])C(=O)[*:2]; Arg(Me) = CNC(=N)NCCC[C@H](N)C(=O)O; Cha = N[C@@H](CC1CCCCC1)C(=O)O; X2 = O=C(Cc1c[nH]c2ccccc12)*; Hexanoyl = CCCCCC(=O)*; azaGly = NNC(=O)O

Experiments:
hOT7T175 [1] = target: T1, hOT7T175 (Homo sapiens, UniProt Q969F8, L364H); assay: hOT7T175 receptor binding activity: binding inhibition of Cy-5-labeled metastin (40-54) on hOT7T175-expressed CHO cells; design: expressed in transfected cells; host or cells: CHO cells
T1 sequence (Q969F8 whole entry L364H): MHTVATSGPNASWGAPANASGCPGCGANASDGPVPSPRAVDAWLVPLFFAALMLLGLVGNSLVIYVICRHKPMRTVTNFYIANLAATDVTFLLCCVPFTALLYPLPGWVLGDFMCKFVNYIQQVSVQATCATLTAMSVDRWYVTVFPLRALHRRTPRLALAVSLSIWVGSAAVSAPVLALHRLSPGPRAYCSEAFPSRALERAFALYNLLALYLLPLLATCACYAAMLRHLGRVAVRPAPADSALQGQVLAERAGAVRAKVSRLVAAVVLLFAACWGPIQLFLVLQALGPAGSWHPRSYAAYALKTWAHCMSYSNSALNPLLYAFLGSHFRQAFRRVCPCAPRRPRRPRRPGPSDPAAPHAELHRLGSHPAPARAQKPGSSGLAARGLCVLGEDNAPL

hOT7T175 [2] = target: T1, hOT7T175; assay: Intracellular Ca ion level-increasing activity using FLIPR in hOT7T175/CHO; format: cell-based; design: expressed in transfected cells; host or cells: CHO/dhfr- cells, obtained from ATCC; conditions: relative, Metastin (1-54) = 1

SMILES	IC50 (hOT7T175 [1])	Specific Activity (intracellular Ca ion level-increasing activity) (hOT7T175 [2])
CC(C)C[C@H](NC(=O)CNC(=O)[C@H](Cc1ccccc1)NC(=O)[C@H](CO)NC(=O)[C@H](CC(N)=O)NC(=O)[C@H](Cc1c[nH]c2ccccc12)NC(=O)[C@H](CC(N)=O)NC(=O)[C@@H](N)CC(=O)O)C(=O)N[C@@H](CCCNC(=N)N)C(=O)N[C@@H](Cc1ccccc1)C(N)=O [Compound No. 75] (H-DNWNSFGLRF-NH2)	880 nM	1
CC(C)C[C@H](NC(=O)CNC(=O)[C@H](CC1CCCCC1)NC(=O)[C@H](CO)NC(=O)[C@H](CC(N)=O)NC(=O)[C@H](Cc1c[nH]c2ccccc12)NC(=O)[C@H](CC(N)=O)NC(=O)[C@@H](N)Cc1ccc(O)cc1)C(=O)N[C@@H](CCCNC(=N)N)C(=O)N[C@@H](Cc1ccccc1)C(N)=O [Compound No. 156, Tyr-Asn-Trp-Asn-Ser-Cha-Gly-Leu-Arg-Phe-NH2] (H-YNWNS[Cha]GLRF-NH2)	49 nM	2
CC(C)C[C@H](NC(=O)[C@H](C)NC(=O)[C@H](Cc1ccccc1)NC(=O)[C@H](CO)NC(=O)[C@H](CC(N)=O)NC(=O)[C@H](Cc1c[nH]c2ccccc12)NC(=O)[C@H](CC(N)=O)NC(=O)[C@@H](N)Cc1ccc(O)cc1)C(=O)N[C@@H](CCCNC(=N)N)C(=O)N[C@@H](Cc1ccccc1)C(N)=O [Compound No. 50] (H-YNWNSFALRF-NH2)	190 nM	30
CC[C@H](C)[C@H](NC(=O)[C@H](CC(N)=O)NC(=O)[C@H](N)Cc1ccc(O)cc1)C(=O)N[C@@H](CC(N)=O)C(=O)N[C@@H](CO)C(=O)N[C@@H](Cc1ccccc1)C(=O)NNC(=O)N[C@@H](CC(C)C)C(=O)N[C@@H](CCCNC(=N)NC)C(=O)N[C@@H](Cc1ccccc1)C(N)=O [Compound No. 233, D-Tyr-Asn-Ile-Asn-Ser-Phe-AzaGly-Leu-Arg(Me)-Phe-NH2] (H-[dY]NINSF[azaGly]L[Arg(Me)]F-NH2)	23 nM	1
CC(C)C[C@H](NC(=O)CNC(=O)[C@H](Cc1ccccc1)NC(=O)[C@H](CO)NC(=O)[C@H](CC(N)=O)NC(=O)[C@H](Cc1c[nH]c2ccccc12)NC(=O)[C@H](CC(N)=O)NC(=O)[C@@H](N)Cc1ccc(O)cc1)C(=O)N[C@@H](CCCCNC(=N)N)C(=O)N[C@@H](Cc1ccccc1)C(N)=O [Compound No. 97]	370 nM	10
CNC(=N)NCCC[C@H](NC(=O)[C@H](CC(C)C)NC(=O)NNC(=O)[C@H](Cc1ccccc1)NC(=O)[C@H](CO)NC(=O)[C@H](CC(N)=O)NC(=O)[C@@H](N)Cc1c[nH]c2ccccc12)C(=O)N[C@@H](Cc1ccccc1)C(N)=O [Compound No. 271, Trp-Asn-Ser-Phe-AzaGly-Leu-Arg(Me)-Phe-NH2] (H-WNSF[azaGly]L[Arg(Me)]F-NH2; N-terminus assumed)	120 nM	1
CC(C)C[C@H](NC(=O)CNC(=O)[C@H](Cc1ccccc1)NC(=O)[C@H](CO)NC(=O)[C@H](CC(N)=O)NC(=O)[C@H](Cc1c[nH]c2ccccc12)NC(=O)[C@H](CC(N)=O)NC(=O)[C@@H](N)Cc1ccc(O)cc1)C(=O)N[C@@H](CCCNC(=N)N)C(=O)N[C@@H](Cc1ccc(Cl)c(Cl)c1)C(N)=O [Compound No. 199]	470 nM	3
CNC(=N)NCCC[C@H](NC(=O)[C@H](CC(C)C)NC(=O)CNC(=O)[C@H](Cc1ccccc1)NC(=O)[C@H](CO)NC(=O)[C@H](CC(N)=O)NC(=O)[C@@H](Cc1c[nH]c2ccccc12)NC(=O)[C@H](CC(N)=O)NC(=O)[C@H](N)Cc1ccc(O)cc1)C(=O)N[C@@H](Cc1ccccc1)C(N)=O [Compound No. 142, D-Tyr-Asn-D-Trp-Asn-Ser-Phe-Gly-Leu-Arg(Me)-Phe-NH2]	26 nM	2
CNC(=N)NCCC[C@H](NC(=O)[C@H](CC(C)C)NC(=O)NNC(=O)[C@H](Cc1ccccc1)NC(=O)[C@H](CO)NC(=O)[C@H](CC(N)=O)NC(=O)[C@H](C)NC(=O)[C@H](CC(N)=O)NC(=O)[C@H](N)Cc1ccc(O)cc1)C(=O)N[C@@H](Cc1ccccc1)C(N)=O [Compound No. 235, D-Tyr-Asn-Ala-Asn-Ser-Phe-AzaGly-Leu-Arg(Me)-Phe-NH2] (H-[dY]NANSF[azaGly]L[Arg(Me)]F-NH2)	100 nM	1
CNC(=N)NCCC[C@H](NC(=O)[C@H](CC(C)C)NC(=O)NNC(=O)[C@H](Cc1ccccc1)NC(=O)[C@H](CO)NC(=O)[C@H](CC(N)=O)NC(=O)CCc1c[nH]c2ccccc12)C(=O)N[C@@H](Cc1ccccc1)C(N)=O [Compound No. 260, 3-(3-Indolyl)propionyl-Asn-Ser-Phe-AzaGly-Leu-Arg(Me)-Phe-NH2] ({Propanoyl(3-indol-3-yl)}-NSF[azaGly]L[Arg(Me)]F-NH2)	320 nM	5
CC(C)C[C@H](NC(=O)CNC(=O)[C@H](Cc1ccccc1)NC(=O)[C@H](CO)NC(=O)[C@H](CC(N)=O)NC(=O)[C@H](Cc1c[nH]c2ccccc12)NC(=O)[C@H](CC(N)=O)NC(=O)[C@@H](N)Cc1ccc(O)cc1)C(=O)N[C@@H](CCCNC(=N)N)C(=O)N[C@@H](CC1CCCCC1)C(N)=O [Compound No. 112] (H-YNWNSFGLR[Cha]-NH2)	370 nM	2
CC(C)C[C@H](NC(=O)CNC(=O)[C@H](Cc1ccccc1)NC(=O)[C@H](CO)NC(=O)[C@H](CC(N)=O)NC(=O)CCc1c[nH]c2ccccc12)C(=O)N[C@@H](CCCNC(=N)N)C(=O)N[C@@H](Cc1ccccc1)C(N)=O [Compound No. 114, 3-(3-Indolyl)propionyl-Asn-Ser-Phe-Gly-Leu-Arg-Phe-NH2] ({Propanoyl(3-indol-3-yl)}-NSFGLRF-NH2)	550 nM	3
CNC(=N)NCCC[C@H](NC(=O)[C@H](CC(C)C)NC(=O)NNC(=O)[C@H](Cc1ccccc1)NC(=O)[C@H](CO)NC(=O)[C@H](CC(N)=O)NC(=O)[C@H](Cc1c[nH]c2ccccc12)NC(=O)[C@@H](CC(N)=O)NC(=O)[C@H](N)Cc1ccc(O)cc1)C(=O)N[C@@H](Cc1ccccc1)C(N)=O [Compound No. 237, D-Tyr-D-Asn-Trp-Asn-Ser-Phe-AzaGly-Leu-Arg(Me)-Phe-NH2]	27 nM	3
COc1ccc(C[C@H](NC(=O)[C@H](CCCNC(=N)N)NC(=O)[C@H](CC(C)C)NC(=O)CNC(=O)[C@H](Cc2ccccc2)NC(=O)[C@H](CO)NC(=O)[C@H](CC(N)=O)NC(=O)[C@H](Cc2c[nH]c3ccccc23)NC(=O)[C@H](CC(N)=O)NC(=O)[C@@H](N)Cc2ccc(O)cc2)C(N)=O)cc1 [Compound No. 18] (H-YNWNSFGLRY(Me)-NH2)	7.7 nM	1
CNC(=N)NCCC[C@H](NC(=O)[C@H](CC(C)C)NC(=O)NNC(=O)[C@H](Cc1ccccc1)NC(=O)[C@H](CO)NC(=O)[C@H](CC(N)=O)NC(=O)[C@@H](Cc1c[nH]c2ccccc12)NC(=O)[C@H](CC(N)=O)NC(=O)[C@H](N)Cc1ccc(O)cc1)C(=O)N[C@@H](Cc1ccccc1)C(N)=O [Compound No. 236, D-Tyr-Asn-D-Trp-Asn-Ser-Phe-AzaGly-Leu-Arg(Me)-Phe-NH2]	42 nM	2
CNC(=N)NCCC[C@H](NC(=O)[C@H](CC(C)C)NC(=O)NNC(=O)[C@H](Cc1ccccc1)NC(=O)[C@H](CO)NC(=O)[C@H](CC(N)=O)NC(=O)Cc1c[nH]c2ccccc12)C(=O)N[C@@H](Cc1ccccc1)C(N)=O [Compound No. 266, Indol-3-acetyl-Asn-Ser-Phe-AzaGly-Leu-Arg(Me)-Phe-NH2] (X2-NSF[azaGly]L[Arg(Me)]F-NH2)	230 nM	2
CCCCCC(=O)N[C@@H](CC(N)=O)C(=O)N[C@@H](CO)C(=O)N[C@@H](Cc1ccccc1)C(=O)NNC(=O)N[C@@H](CC(C)C)C(=O)N[C@@H](CCCNC(=N)NC)C(=O)N[C@@H](Cc1ccccc1)C(N)=O [Compound No. 277, n-Hexanoyl-Asn-Ser-Phe-AzaGly-Leu-Arg(Me)-Phe-NH2] (Hexanoyl-NSF[azaGly]L[Arg(Me)]F-NH2)	54 nM	2
CC(C)C[C@H](NC(=O)CNC(=O)[C@H](Cc1ccccc1)NC(=O)[C@H](CO)NC(=O)[C@H](CC(N)=O)NC(=O)[C@H](Cc1c[nH]c2ccccc12)NC(=O)[C@H](CC(N)=O)NC(=O)[C@@H](N)Cc1ccc(O)cc1)C(=O)N[C@@H](CCCNC(=N)N)C(=O)N[C@@H](Cc1ccc(N)cc1)C(N)=O [Compound No. 131]	120 nM	3
CCNC(=N)NCCC[C@H](NC(=O)[C@H](CC(C)C)NC(=O)CNC(=O)[C@H](Cc1ccccc1)NC(=O)[C@H](CO)NC(=O)[C@H](CC(N)=O)NC(=O)[C@H](Cc1c[nH]c2ccccc12)NC(=O)[C@H](CC(N)=O)NC(=O)[C@@H](N)Cc1ccc(O)cc1)C(=O)N[C@@H](Cc1ccccc1)C(N)=O [Compound No. 220]	330 nM	5
CNC(=N)NCCC[C@H](NC(=O)[C@H](CC(C)C)NC(=O)NNC(=O)[C@H](Cc1ccccc1)NC(=O)[C@H](CO)NC(=O)[C@H](CC(N)=O)NC(=O)C(c1ccccc1)c1ccccc1)C(=O)N[C@@H](Cc1ccccc1)C(N)=O [Compound No. 268, Diphenylacetyl-Asn-Ser-Phe-AzaGly-Leu-Arg(Me)-Phe-NH2] (Diphenylacetyl-NSF[azaGly]L[Arg(Me)]F-NH2)	550 nM	1
CNC(=N)NCC[C@H](NC(=O)[C@H](CC(C)C)NC(=O)CNC(=O)[C@H](Cc1ccccc1)NC(=O)[C@H](CO)NC(=O)[C@H](CC(N)=O)NC(=O)[C@H](Cc1c[nH]c2ccccc12)NC(=O)[C@H](CC(N)=O)NC(=O)[C@@H](N)Cc1ccc(O)cc1)C(=O)N[C@@H](Cc1ccccc1)C(N)=O [Compound No. 311] (H-YNWNSFGL[X8]F-NH2)	470 nM	1
